According to article PMC10634346 (Cancer Research Communications, 2023):
Where two headings read alike, the source gives them in different places.

Key:
[1] = Clinical pharmacokinetics, plasma LC/MS-MS (NCT02635672); type: in vivo, human; details: for Cmax / half-life: human, plasma
Procedure: (§1) Fifteen patients with refractory or relapsed DH-DLBCL or other MYC+ NHL were treated with enitociclib (30 mg, 21-day cycle, once weekly x3) as a 30-minute intravenous infusion on study days 1, 8, and 15 (NCT02635672). Longitudinal gene expression levels were analyzed by RNA-seq, and enitociclib plasma concentrations were measured using LC/MS-MS. The clinical study protocol was approved by the Institutional Review Board of participating institutions and complied with the Declaration of Helsinki, current Good Clinical Practice guidelines, and local laws and regulations. Written informed consent was provided by all participants prior to the initiation of any study-specific procedure.
(§2) All pharmacokinetic parameters were calculated by noncompartmental methods as described previously ([36]) using WinNonlin v5.3 (Certara LP). Pharmacokinetic/pharmacodynamic modeling was performed using SAAM II v2.3.2 (The Epsilon Group). Pooled pharmacokinetic data from all patients [n = 15 for single dose, cycle 1 day 1 (C1D1) and n = 11 for multiple doses, cycle 1 day 15 (C1D15)] were characterized using a one-compartment model with intravenous dosing. Subsequently, the pharmacokinetic/pharmacodynamic relationship of enitociclib plasma concentrations to MCL1 and MYC mRNA change was characterized using an indirect response model ([37]) on pooled biomarker data where enitociclib concentrations inhibit the formation of MCL1 or MYC mRNA as described by the following equation: […]

[2] = system: DH-DLBCL and other MYC+ NHL; details: 30 mg i.v. once weekly, phase I; cited from earlier work
MYC mRNA in whole blood = MYC mRNA in whole blood of patients (RNA-seq, PK/PD modeling); type: in vivo, human; details: for maximum extent of inhibition for MYC mRNA: C1D1, 30 mg; for MYC mRNA downregulation: C1D15, third weekly 30 mg dose; for mean fold change mRNA levels of MYC: after C1D1 dose; for mean fold change mRNA levels of MYC / MYC mRNA fold change: RNA-seq; for MYC mRNA fold change: after C1D15 dose
Procedure: (§3) Total RNA was extracted from blood of patients and cell lines using RNeasy Plus Mini Kit (QIAGEN, #74136) and cDNA prepared with the Maxima First Strand cDNA Synthesis Kit for RT-PCR (Thermo Fisher Scientific, K1642) according to manufacturer's instructions. The integrity of purified total RNA was evaluated using an Agilent 2100 Bioanalyzer system and RNA 6000 Nano Kit (Agilent, #5067-1511). Differential gene expression analysis was performed (Fios Genomics) from RNA-seq data (Discovery Life Sciences). MYC and MCL1 mRNA levels were measured by qPCR in vitro and in vivo, using a Taqman qPCR system (Thermo Fisher Scientific), TaqMan Fast Universal PCR Master Mix (2X) no AmpErase (#4352042) and TaqMan probes for MYC (Hs00153408_m1) and MCL1 (Hs03043899_m1). RNA-seq data were analyzed using DESeq2 ([35]).
as §1, §2
PD is defined as MCL1 or MYC mRNA expression level as a percentage from baseline, t (h) is the time, kin (1/h) is the formation rate of MCL1 or MYC, IC50 (µg/L) is the enitociclib concentration where there is 50% inhibition of PD, kout (h^−1) is the rate constant describing the loss of PD, and n is the hill coefficient. At homeostasis, kin = kout (PD); therefore, kout was replaced by kin/(PD)initial where (PD)initial is equal to 100%. Estimates of pharmacokinetic and pharmacodynamic parameters from pharmacokinetic/pharmacodynamic modeling of pooled data are presented as the estimate followed by CV in parentheses.
RNA-seq data generated from the analysis of two cell lines treated with the three CDK9 inhibitors was analyzed to investigate the differences in gene expression levels between various posttreatment timepoints and the pretreatment samples. Quality control assessment and exploratory data analysis by principal component analysis (PCA) were done on raw counts and on normalized count data. Normalization of RNA-seq count data was done using trimmed mean of M-values normalization and transformed with voom, resulting in log2 counts per million with associated precision weights. […] Significance values (Padj) were adjusted for multiple testing, by controlling the FDR using the Benjamini–Hochberg procedure. […] RNA-seq data generated from blood samples taken from patients before and after their first dose (C1D1) or after multiple doses, before and after their third dose (C1D15) were analyzed and normalized using the same pipeline as cell lines for comparisons.

SU-DHL-10 xenografts = assay: SU-DHL-10 xenograft antitumor efficacy; type: in vivo, C.B-17 SCID mice
Procedure: (§4) A total of 10 × 10^6 SU-DHL-10 cells were inoculated subcutaneously into 6–8 weeks old female C.B-17 SCID mice (Iffa Credo, Brussels). The mice were randomized to treatment groups at a tumor volume of 63–104 mm^3 and treated (intravenously, once weekly) with 10 mg/kg enitociclib (60% PEG400, 10% ethanol, water), 15 mg/kg enitociclib (30% PEG400, 10% ethanol, water), or corresponding vehicle treatments. Mice were around 10–12 weeks of age at the start of study. All animal experiments were performed under the national animal welfare laws of Germany and approved by the local authorities.
Statistical analyses were performed using GraphPad Prism v9 (GraphPad Software). For tumor volumes in SU-DHL-10 xenograft model, statistics were performed using unpaired t test in comparison with the corresponding vehicle treatment. The obtained P values were adjusted for all analyses. Results were considered statistically significant when P < 0.05.

[3] = system: MYC mRNA in SU-DHL-10 tumors; assay: Pharmacodynamics in SU-DHL-10 xenograft tumors, MYC mRNA qPCR; type: in vivo, C.B-17 SCID mice; details: single dose 10 and 15 mg/kg
Procedure: as §3, §4

Cmax ([1]; intravenous, 22.5 mg, subject 3, dose lowered from 30 to 22.5 mg, not included in average, read-out: Multiple dose C max): 592 ng/mL | half-life ([1]; intravenous, 22.5 mg, subject 3, dose lowered from 30 to 22.5 mg, not included in average, read-out: Multiple dose t1/2 (converted)): 2.53 h | half-life ([1]; intravenous, 30 mg, patients treated with multiple doses, read-out: mean t1/2 (converted)): 5.56 h | Cmax ([1]; iv, 30 mg, patients, 30 mg i.v. once weekly, read-out: Cmax): 1750 nM | unbound Cmax ([1]; patients, 30 mg i.v. once weekly, Cmax x fu): 117 nM | IC50 (MYC mRNA in whole blood; Homo sapiens, PK/PD indirect response model, pooled patient blood data, read-out: model estimated unbound IC50 for MYC mRNA): 17.4 to 22 nM
Compound: COc1cc(F)ccc1-c1cc(Nc2cc(CS(C)(=N)=O)ccn2)ncc1F (stereo not drawn) [enitociclib]
complete metabolic remission (CR), patients with DH-DLBCL [2]: 2 of 7 | maximum extent of inhibition for MYC mRNA (MYC mRNA in whole blood; other MYC+ NHL (n = 5), range 69.9%–90.5%): 82.3% | maximum extent of inhibition for MYC mRNA (MYC mRNA in whole blood; patients with DH-DLBCL (n = 10), range 73.6%–94.8%): 89.6% | MYC mRNA downregulation (MYC mRNA in whole blood; DH-DLBCL (n = 9), range 96.85%–50%): 86.71% | MYC mRNA downregulation (MYC mRNA in whole blood; other MYC+ NHL (n = 3), range 53.7%–86.9%): 71.08% | mean fold change mRNA levels of MYC (MYC mRNA in whole blood; DH-DLBCL): −3.45 (SD 0.68) | MYC mRNA fold change (MYC mRNA in whole blood; DH-DLBCL): −3.38 (SD 1.07) | mean fold change mRNA levels of MYC (MYC mRNA in whole blood; other MYC+ NHL): −2.61 (SD 0.54) | MYC mRNA fold change (MYC mRNA in whole blood; other MYC+ NHL): −1.97 (SD 0.75) | antitumor efficacy (in words) (SU-DHL-10 xenografts; 10 mg/kg i.v. once weekly): tumor growth control | treatment/control (T/C) value (SU-DHL-10 xenografts; 10 mg/kg i.v. once weekly, day 16 after treatment start, P = 0.011): 0.19 | antitumor efficacy (in words) (SU-DHL-10 xenografts; 15 mg/kg i.v. once weekly, 3-week treatment period): complete regression | treatment/control (T/C) value (SU-DHL-10 xenografts; 15 mg/kg i.v. once weekly, day 20 after treatment start, P < 0.001): 0.005 | tumor growth inhibition reaching, of control (SU-DHL-10 xenografts; SU-DHL-10 xenografts): 0.5 % of control | MYC mRNA in tumors (in words) [3]: depleted by 4 hours postdose
